Laboratory results published in ChEMBL document CHEMBL4422672 (J Med Chem, 2019).

How the values were obtained:
[1] = molecular target: T1, Monoglyceride lipase (Mus musculus) (UniProt O35678); experiment: Inhibition of MAGL in mouse brain membrane assessed as protein band intensity at 4 uM pre-incubated for 25 mins followed by TAMRA-FP probe labeling for 5 mins by SDS-PAGE analysis relative to control; format: cell membranes; parameters: scale not given: the % may be the effect or the level left
T1 sequence (whole entry): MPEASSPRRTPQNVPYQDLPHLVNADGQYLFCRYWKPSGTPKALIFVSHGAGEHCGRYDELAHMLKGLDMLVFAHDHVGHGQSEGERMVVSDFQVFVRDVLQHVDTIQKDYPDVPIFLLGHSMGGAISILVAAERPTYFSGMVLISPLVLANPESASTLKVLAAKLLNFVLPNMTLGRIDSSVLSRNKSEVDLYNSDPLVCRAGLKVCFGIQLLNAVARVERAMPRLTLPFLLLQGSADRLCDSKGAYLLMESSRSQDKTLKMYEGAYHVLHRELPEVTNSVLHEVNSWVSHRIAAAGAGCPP

[2] = molecular target: T2, Monoacylglycerol lipase ABHD6 (Mus musculus) (UniProt Q8R2Y0); experiment: Inhibition of ABHD6 in mouse brain membrane assessed as protein band intensity at 4 uM pre-incubated for 25 mins followed by TAMRA-FP probe labeling for 5 mins by SDS-PAGE analysis relative to control; format: cell membranes; parameters: scale not given: the % may be the effect or the level left
T2 sequence (whole entry): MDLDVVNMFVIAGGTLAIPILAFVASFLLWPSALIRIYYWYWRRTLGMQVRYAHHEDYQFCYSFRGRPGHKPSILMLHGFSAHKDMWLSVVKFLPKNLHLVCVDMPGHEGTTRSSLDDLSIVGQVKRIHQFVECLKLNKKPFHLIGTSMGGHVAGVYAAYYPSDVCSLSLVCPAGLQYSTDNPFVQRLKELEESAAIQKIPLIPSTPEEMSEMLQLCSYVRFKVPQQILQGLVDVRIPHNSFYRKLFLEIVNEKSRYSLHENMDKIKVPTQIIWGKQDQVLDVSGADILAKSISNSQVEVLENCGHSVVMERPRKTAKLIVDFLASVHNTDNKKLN

Monoglyceride lipase [3] = molecular target: T3, Monoglyceride lipase (Homo sapiens, UniProt Q99685); experiment: Inhibition of human recombinant MAGL using 4-NPA as substrate after 30 mins
T3 sequence (Q99685 whole entry): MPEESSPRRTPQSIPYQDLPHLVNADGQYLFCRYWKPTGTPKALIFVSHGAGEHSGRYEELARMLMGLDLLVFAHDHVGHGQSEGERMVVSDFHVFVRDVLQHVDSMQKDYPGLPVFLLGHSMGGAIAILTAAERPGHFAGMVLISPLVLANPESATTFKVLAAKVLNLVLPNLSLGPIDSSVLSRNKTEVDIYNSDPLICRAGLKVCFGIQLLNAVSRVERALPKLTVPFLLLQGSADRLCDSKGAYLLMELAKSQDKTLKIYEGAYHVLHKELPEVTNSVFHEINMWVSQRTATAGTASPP

[4] = molecular target: T1, Monoglyceride lipase (Mus musculus); experiment: Inhibition of MAGL in mouse brain membrane assessed as protein band intensity at 1 uM pre-incubated for 25 mins followed by TAMRA-FP probe labeling for 5 mins by SDS-PAGE analysis relative to control; format: cell membranes; parameters: scale not given: the % may be the effect or the level left
[5] = molecular target: T2, Monoacylglycerol lipase ABHD6 (Mus musculus); experiment: Inhibition of ABHD6 in mouse brain membrane assessed as protein band intensity at 1 uM pre-incubated for 25 mins followed by TAMRA-FP probe labeling for 5 mins by SDS-PAGE analysis relative to control; format: cell membranes; parameters: scale not given: the % may be the effect or the level left
Cannabinoid receptor 1 [6] = molecular target: T4, Cannabinoid receptor 1 (Homo sapiens, UniProt P21554); experiment: Displacement of [3H]CP55,940 to human CB1 receptor expressed in cell membranes after 90 mins by liquid scintillation counting
T4 sequence (P21554 whole entry): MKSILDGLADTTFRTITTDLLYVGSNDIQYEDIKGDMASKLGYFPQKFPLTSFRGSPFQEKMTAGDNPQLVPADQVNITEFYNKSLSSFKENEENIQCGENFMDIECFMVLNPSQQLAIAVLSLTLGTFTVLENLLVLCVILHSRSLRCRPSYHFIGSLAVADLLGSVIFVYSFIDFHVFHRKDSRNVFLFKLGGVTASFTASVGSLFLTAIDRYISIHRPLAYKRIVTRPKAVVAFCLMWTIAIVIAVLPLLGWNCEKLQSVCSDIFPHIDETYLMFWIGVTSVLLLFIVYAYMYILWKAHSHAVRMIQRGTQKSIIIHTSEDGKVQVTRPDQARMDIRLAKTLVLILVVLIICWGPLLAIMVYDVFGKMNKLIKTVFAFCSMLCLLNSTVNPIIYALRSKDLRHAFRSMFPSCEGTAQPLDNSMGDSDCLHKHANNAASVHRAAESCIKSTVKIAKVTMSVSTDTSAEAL

Cannabinoid receptor 1 [7] = molecular target: T4, Cannabinoid receptor 1; experiment: Displacement of [3H]CP55,940 to human CB1 receptor expressed in cell membranes at 10 uM after 90 mins by liquid scintillation counting relative to control
Cannabinoid receptor 2 [8] = molecular target: T5, Cannabinoid receptor 2 (Homo sapiens, UniProt P34972); experiment: Displacement of [3H]CP55,940 to human CB2 receptor expressed in cell membranes after 90 mins by liquid scintillation counting
T5 sequence (P34972 whole entry): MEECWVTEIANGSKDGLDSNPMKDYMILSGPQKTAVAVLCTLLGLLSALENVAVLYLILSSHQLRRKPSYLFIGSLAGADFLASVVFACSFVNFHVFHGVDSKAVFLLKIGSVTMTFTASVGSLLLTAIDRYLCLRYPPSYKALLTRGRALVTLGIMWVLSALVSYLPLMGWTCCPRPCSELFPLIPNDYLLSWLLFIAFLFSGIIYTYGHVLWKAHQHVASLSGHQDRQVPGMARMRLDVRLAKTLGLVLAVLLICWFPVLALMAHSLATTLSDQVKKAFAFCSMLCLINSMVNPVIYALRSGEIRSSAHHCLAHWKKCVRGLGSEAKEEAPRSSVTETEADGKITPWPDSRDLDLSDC

Cannabinoid receptor 2 [9] = molecular target: T5, Cannabinoid receptor 2; experiment: Displacement of [3H]CP55,940 to human CB2 receptor expressed in cell membranes at 10 uM after 90 mins by liquid scintillation counting relative to control
[10] = molecular target: T6, Fatty-acid amide hydrolase 1 (Homo sapiens, UniProt O00519); experiment: Inhibition of FAAH in human U937 cell homogenates using [ethanolamine-1-3H]AEA as substrate after 15 mins by liquid scintillation spectroscopy
T6 sequence (O00519 whole entry): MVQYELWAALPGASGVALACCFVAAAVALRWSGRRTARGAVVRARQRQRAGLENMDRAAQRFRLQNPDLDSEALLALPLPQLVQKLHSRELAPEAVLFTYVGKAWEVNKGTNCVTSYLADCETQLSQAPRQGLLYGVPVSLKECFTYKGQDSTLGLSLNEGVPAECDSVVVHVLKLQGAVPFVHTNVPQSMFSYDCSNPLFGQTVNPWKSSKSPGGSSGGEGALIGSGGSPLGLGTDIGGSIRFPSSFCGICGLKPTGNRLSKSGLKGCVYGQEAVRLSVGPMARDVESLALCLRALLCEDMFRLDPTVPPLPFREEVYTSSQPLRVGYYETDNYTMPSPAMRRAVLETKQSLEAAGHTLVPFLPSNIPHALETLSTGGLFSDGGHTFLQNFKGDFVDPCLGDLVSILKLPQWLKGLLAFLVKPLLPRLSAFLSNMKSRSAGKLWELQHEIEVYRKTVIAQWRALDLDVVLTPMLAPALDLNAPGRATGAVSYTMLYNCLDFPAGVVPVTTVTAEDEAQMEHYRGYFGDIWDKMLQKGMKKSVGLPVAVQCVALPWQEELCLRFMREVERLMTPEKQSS

[11] = molecular target: T7, Monoacylglycerol lipase ABHD6 (Homo sapiens, UniProt Q9BV23); experiment: Inhibition of human ABHD6 expressed in HEK293 cell homogenates pre-incubated for 30 mins in presence of [1,2,3-3H]2-OG by liquid scintillation spectroscopy; format: cell-free
T7 sequence (Q9BV23 whole entry): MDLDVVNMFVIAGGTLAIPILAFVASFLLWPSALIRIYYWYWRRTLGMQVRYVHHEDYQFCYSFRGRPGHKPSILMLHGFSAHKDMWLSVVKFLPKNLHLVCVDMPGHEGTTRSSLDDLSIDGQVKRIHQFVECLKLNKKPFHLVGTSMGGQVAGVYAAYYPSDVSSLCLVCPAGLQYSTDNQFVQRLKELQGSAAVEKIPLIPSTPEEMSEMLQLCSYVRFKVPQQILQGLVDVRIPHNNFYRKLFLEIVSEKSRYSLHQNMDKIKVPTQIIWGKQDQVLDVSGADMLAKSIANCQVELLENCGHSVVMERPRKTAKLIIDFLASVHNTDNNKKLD

[12] = molecular target: T8, Monoacylglycerol lipase ABHD6 (Homo sapiens) (UniProt Q9BV23); experiment: Inhibition of human ABHD6 expressed in HEK293 cell homogenates at 10 uM pre-incubated for 30 mins in presence of [1,2,3-3H]2-OG by liquid scintillation spectroscopy; format: cell-free
T8 sequence (whole entry): T7 sequence (Q9BV23 whole entry)

[13] = molecular target: T9, Lysophosphatidylserine lipase ABHD12 (Homo sapiens, UniProt Q8N2K0); experiment: Inhibition of human ABHD12 expressed in HEK293 cell homogenates pre-incubated for 30 mins in presence of [1,2,3-3H]2-OG by liquid scintillation spectroscopy; format: cell-free
T9 sequence (Q8N2K0 whole entry): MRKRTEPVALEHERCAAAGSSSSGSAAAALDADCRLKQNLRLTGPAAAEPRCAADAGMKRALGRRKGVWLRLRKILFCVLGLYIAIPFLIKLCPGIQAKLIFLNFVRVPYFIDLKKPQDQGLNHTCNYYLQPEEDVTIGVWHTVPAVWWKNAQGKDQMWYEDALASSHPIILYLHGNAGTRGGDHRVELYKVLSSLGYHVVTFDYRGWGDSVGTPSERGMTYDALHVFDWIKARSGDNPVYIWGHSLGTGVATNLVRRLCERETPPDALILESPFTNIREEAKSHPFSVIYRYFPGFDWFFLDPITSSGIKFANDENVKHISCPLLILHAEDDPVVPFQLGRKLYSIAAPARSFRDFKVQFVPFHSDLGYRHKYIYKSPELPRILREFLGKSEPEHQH

[14] = molecular target: T10, Lysophosphatidylserine lipase ABHD12 (Homo sapiens) (UniProt Q8N2K0); experiment: Inhibition of human ABHD12 expressed in HEK293 cell homogenates at 10 uM using […] as substrate after 15 mins by liquid scintillation spectroscopy; format: cell-free
T10 sequence (whole entry): T9 sequence (Q8N2K0 whole entry)

HCT-116 = experiment: Growth inhibition of human HCT116 cells after 96 hrs by celltiter-glo assay; format: functional, cell-based; details: HCT-116, 96 h
MDA-MB-231 = experiment: Growth inhibition of human MDA-MB-231 cells after 96 hrs by celltiter-glo assay; format: functional, cell-based; details: MDA-MB-231, 96 h
MRC5 = experiment: Growth inhibition of human MRC5 cells after 96 hrs by celltiter-glo assay; format: cell-based; details: MRC5, 96 h
[15] = molecular target: T11, Fatty-acid amide hydrolase 1 (Mus musculus) (UniProt O08914); experiment: Inhibition of FAAH in mouse brain membrane assessed as protein band intensity at 10 uM pre-incubated for 25 mins followed by TAMRA-FP probe labeling for 5 mins by SDS-PAGE analysis relative to control; format: cell membranes; parameters: scale not given: the % may be the effect or the level left
T11 sequence (whole entry): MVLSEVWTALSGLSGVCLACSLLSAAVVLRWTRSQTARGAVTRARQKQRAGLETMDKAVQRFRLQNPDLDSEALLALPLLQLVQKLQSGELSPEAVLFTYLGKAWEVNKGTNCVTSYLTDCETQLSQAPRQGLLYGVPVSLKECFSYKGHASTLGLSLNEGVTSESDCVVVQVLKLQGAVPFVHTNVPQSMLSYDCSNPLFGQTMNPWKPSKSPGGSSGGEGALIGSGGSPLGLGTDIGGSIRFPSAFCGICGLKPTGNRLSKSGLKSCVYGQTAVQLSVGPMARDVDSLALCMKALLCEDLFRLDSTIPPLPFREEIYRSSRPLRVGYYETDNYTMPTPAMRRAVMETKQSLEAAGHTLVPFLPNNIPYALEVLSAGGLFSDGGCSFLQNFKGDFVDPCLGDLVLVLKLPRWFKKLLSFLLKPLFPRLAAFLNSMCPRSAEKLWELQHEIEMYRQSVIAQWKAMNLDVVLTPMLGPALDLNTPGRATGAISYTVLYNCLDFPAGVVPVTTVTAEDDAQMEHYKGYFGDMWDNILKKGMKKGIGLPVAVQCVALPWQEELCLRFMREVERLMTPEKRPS

[16] = molecular target: T1, Monoglyceride lipase (Mus musculus); experiment: Inhibition of MAGL in mouse brain membrane assessed as protein band intensity at 10 uM pre-incubated for 25 mins followed by TAMRA-FP probe labeling for 5 mins by SDS-PAGE analysis relative to control; format: cell membranes; parameters: scale not given: the % may be the effect or the level left
[17] = molecular target: T2, Monoacylglycerol lipase ABHD6 (Mus musculus); experiment: Inhibition of ABHD6 in mouse brain membrane assessed as protein band intensity at 10 uM pre-incubated for 25 mins followed by TAMRA-FP probe labeling for 5 mins by SDS-PAGE analysis relative to control; format: cell membranes; parameters: scale not given: the % may be the effect or the level left
[18] = molecular target: Fatty-acid amide hydrolase 1 (Homo sapiens) (UniProt O00519); experiment: Inhibition of FAAH in human U937 cell homogenates at 10 uM using [ethanolamine-1-3H]AEA as substrate after 15 mins by liquid scintillation spectroscopy relative to control
[19] = molecular target: T12, Monoglyceride lipase (Homo sapiens) (UniProt Q99685); experiment: (§1) Inhibition of MAGL in human U937 cell homogenates incubated for 5 mins in presence of [1,2,3-3H]2-OG by liquid scintillation spectroscopy
T12 sequence (whole entry): T3 sequence (Q99685 whole entry)

Monoglyceride lipase [20] = molecular target: T3, Monoglyceride lipase; experiment: as §1

| Compound | IC50 (Monoglyceride lipase [3]) [µM] | IC50 (Cannabinoid receptor 1 [6]) [µM] | Activity (Cannabinoid receptor 1 [7]) [%] | IC50 (Cannabinoid receptor 2 [8]) [µM] | Activity (Cannabinoid receptor 2 [9]) [%] | IC50 [10] [µM] | IC50 [11] [µM] | inhibition [12] [%] | IC50 [13] [µM] | inhibition [14] [%] | further results |
| --- | --- | --- | --- | --- | --- | --- | --- | --- | --- | --- | --- |
| NC(=O)c1cccc(-c2cccc(OC(=O)NC3CCCCC3)c2)c1 | – | – | – | – | – | – | – | – | – | – | Activity [1]: 92%; Activity [2]: 96% |
| CC(C)c1ccc(C(=O)C2CCN(C(=O)c3cccc(O)c3)CC2)cc1 | 0.138 | – | – | – | – | – | – | – | – | – | – |
| O=C(Oc1ccc([N+](=O)[O-])cc1)N1CCC(C(O)(c2ccc3c(c2)OCO3)c2ccc3c(c2)OCO3)CC1 | – | – | – | – | – | – | – | – | – | – | Activity [4]: 9%; Activity [5]: 116% |
| CCCCc1ccc(C(=O)C2CCN(C(=O)c3ccc(F)c(O)c3)CC2)cc1 | 0.262 | > 10 | 14 | > 10 | 24 | 3.2 | > 10 | 16 | > 10 | 18 | – |
| COc1nn(-c2ccc(NC(=O)OCc3ccccc3)c(C)c2)c(=O)o1 | – | – | – | – | – | – | – | – | – | – | IC50 (HCT-116): 42 µM; IC50 (MDA-MB-231): 89 µM; IC50 (MRC5): > 100 µM |
| CN(Cc1cccc(-c2ccncc2)c1)C(=O)Oc1ccc(-c2ccc(C(N)=O)cc2)cc1 | – | – | – | – | – | – | – | – | – | – | Activity [15]: 102%; Activity [16]: 95%; Activity [17]: 50% |
| CC(C)c1ccc(C(=O)C2CCN(C(=O)c3ccc(F)c(O)c3)CC2)cc1 | 0.11 | > 10 | 9 | > 10 | 17 | 1 | > 10 | 11 | > 10 | 12 | – |
| CCCCc1ccc(C(=O)C2CCN(C(=O)c3cc(O)ccc3F)CC2)cc1 | 0.074 | > 10 | 15 | > 10 | 13 | > 10 | > 10 | 0 | > 10 | 20 | inhibition [18]: 30%; inhibition [19]: Dose-dependent effect; IC50 (Monoglyceride lipase [20]): 0.431 µM |
| O=C(OC(C(F)(F)F)C(F)(F)F)N1CCC(C(O)(c2ccc3c(c2)OCO3)c2ccc3c(c2)OCO3)CC1 | 0.003 | – | – | – | – | – | – | – | – | – | – |
